Literature values in patent US20070059297A1, “Methods and compositions for improving visual acuity” (Nestec, S.A., priority 2005, published 2007).

Tested on: rat retina neuronal cells
Conditions: in vitro incubation

Compound: CC/C=C\C/C=C\C/C=C\C/C=C\C/C=C\C/C=C\CCC(=O)O [DHA, docosahexaenoic acid]
- DHA content of cells incubated with DHA versus cells incubated with other fatty acids: four- to six-fold more DHA
